Assay results from patent publication US9162984B2, “Small-molecule modulators of melanin expression” (University of Rochester, priority 2007, dated 2015).

Legend:
Assay type in all cases: cell-based, mice
[1] = test system: melan-a murine melanocyte cell line; test: Melanin induction screening in melan-a melanocytes; details: for activity for inducing melanin production: initial screening, 2.5 μM, 3 days, melanin normalized to cell count, vs DMSO
Excerpt: (§1) The melan-a murine melanocyte cell line was chosen for library screening. This is a non-tumorogenic line of melanocytes derived from the skin of C57Bl/6J mice (Bennett et al., Int. J. Cancer 39:414 (1987), which is hereby incorporated by reference in its entirety). These cells are ideal for phenotypic melanin screening as they proliferate quickly, are highly differentiated, and have been extensively studied (Snyder et al., Chemistry & Biology 12(4):477 (2005), which is hereby incorporated by reference in its entirety). Melanocytes were cultured in RPMI 1640 media supplemented with 10% FBS and 0.2 μM TPA, at 37° C. under 5% CO2, 95% atmosphere. For screening, 1×10^5 melan-a melanocytes were plated in 24 well tissue culture plates in a volume of 2 ml. After 18 hr incubation, 1 ml of media was removed and replaced by 1 ml media doped with small molecule, forskolin positive control, or DMSO vehicle control for 3 days. Initial screening was performed at a 2.5 μM dose (0.01% DMSO). Cells were harvested by trypsinization, washed 2× with PBS (pH 7.2), and counted by hemocytometry. Cell counts were used to assess treatment effects on cell proliferation. Melanin production was quantified by lysing cell pellets in 800 μl of 1 M NaOH for 2 hrs on ice, vigorously resuspending the lysed material by pipette, reading the absorbance at 490 nm of 200 μl aliquots of total lysate, and referencing to a standard synthetic melanin (Sigma) curve. The 75 member library was screened in triplicate. Melanin production was normalized to cell count (A490/million cells) and fold change against DMSO was calculated (FIG. 2).

[2] = test system: melan-a murine melanocyte cell line; test: Cell counts by hemocytometry to assess treatment effects on cell proliferation
Excerpt: as §1, with “After 18 hr incubation, 1 ml of media was removed and replaced by 1 ml media doped with small molecule, forskolin positive control, or DMSO vehicle control for 3 days. Initial screening was performed at a 2.5 μM dose (0.01% DMSO).” left out, “Cell counts were used to assess treatment effects on cell proliferation.” left out, “The 75 member library was screened in triplicate.” left out

melan-a melanocytes = test: Melanocyte dendricity by hematoxylin staining; details: 2.5 μM, 72 hours; untreated 36%
Procedure: Melanocytes are highly dendritic cells, and dendricity has been correlated with melanin production (Kosano et al., Biochim. Biophys. Acta 1499:11 (2000); Scott et al., J. Invest. Dermatol. 126:855 (2006), which are hereby incorporated by reference in their entirety). Dendricity was assessed by histochemical hematoxylin staining of melan-a melanocytes with and without 2.5 μM A7 treatment. 1×10^4 melan-a melanocytes were cultured onto vitrogen coated cover slips and treated with 2.5 μM A7 or vehicle control for 72 hours. Cells were fixed in 3.7% formalin/PBS, stained with hematoxylin, and imaged. Dendrites per cell were manually quantitated, and the percentage of cells with greater than 2 dendrites was calculated.

Tyrosinase [3] = test: Tyrosinase activity assay (tritiated water from L-tyrosine-3,5-[3H]) in lysates of treated melanocytes; details: 2.5 μM, 3 days; to a lesser degree than forskolin positive control
Excerpt: To further understand the mode of action for A7, tyrosinase activity was quantitated. Tyrosinase functions to hydroxylate tyrosine to dopaquinone and L-DOPA in the first step of melanin production (Ito, Pigment Cell Res. 16:230 (2003), which is hereby incorporated by reference in its entirety). As such, increased tyrosinase activity leads to increased melanin production. Tyrosinase activity can be measured by monitoring the production of tritiated water upon the hydroxylation of L-tyrosine-3,5-[^3H] to L-DOPA (Pomerantz, J. Biol. Chem. 241(1):161 (1966); Park et al., J. Biol. Chem. 268:11742 (1993), which are hereby incorporated by reference in their entirety).
Similarly to library screening, in quadruplet, melanocytes were cultured with and without 2.5 μM small molecule treatment for 3 days. Resulting cell pellets were lysed in 75 μl of 80 mM K2PO4, 1% CHAPS, 2 mM PMSF, and PICO2 protease inhibitor cocktail (CalBioChem) for 2 hours on ice. Lysates were then pelleted (10 minutes, 4° C., 10,000 rpm) and protein concentration was determined by Bradford assay. […] Aliqouts of 1.0 ml of the tritiated water containing supernatant were transferred to scintillation vials containing 5.0 ml scintillation fluid, and ^3H levels were counted. […]

Tyrosinase [4] = test: Western blot analysis of cellular tyrosinase levels; details: treated melanocytes

Compound	activity for inducing melanin production [1]	other results
CCc1nc2ccccc2cc1C(=O)NCCc1ccc(F)cc1 [Compound A5, N-(4-fluorophenethyl)-2-ethylquinoline-3-carboxamide]	some activity	–
CCc1nc2ccccc2cc1C(=O)NCCc1cccc(F)c1 [Compound A7, N-(3-fluorophenethyl)-2-ethylquinoline-3-carboxamide]	some activity	concentration giving the optimal melanogenic response ([1]; dose response, melanin quantity normalized to DMSO): 2.5 µM; ranking of melanin induction among hits ([1]; subsequent analysis of library hits): most active hit; effect on cell proliferation in dose response ([2]; concentrations up to 5 μM): no significant effect on cell proliferation; cytotoxic effects in cell culture ([2]; melanocytes in culture): does not exhibit cytotoxic effects; percentage of cells with greater than 2 dendrites (melan-a melanocytes): 69%; tyrosinase activity in melanocyte culture (Tyrosinase [3]): increases tyrosinase activity; cellular levels of tyrosinase (Tyrosinase [4]): not altered
O=C(NCc1ccco1)c1ccco1 [Compound C1, N-((furan-2-yl)methyl)furan-2-carboxamide]	some activity	–
CCCCNC(=O)c1ccco1 [Compound C2, N-butylfuran-2-carboxamide]	some activity	–
O=C(NCCc1ccc(F)cc1)c1ccco1 [Compound C5, N-(4-fluorophenethyl)furan-2-carboxamide]	some activity	–
O=C(NCCc1cccc(F)c1)c1ccco1 [Compound C7, N-(3-fluorophenethyl)furan-2-carboxamide]	some activity	–
CC1(C)CCCC(C)(C)N1C(=O)c1ccco1 [Compound C10, (furan-2-yl)(2,2,6,6-tetramethylpiperidin-1-yl)methanone]	some activity	–
CC1(C)CCCC(C)(C)N1C(=O)c1c(F)c(F)c(F)c(F)c1F [Compound D10, (2,2,6,6-tetramethylpiperidin-1-yl)(perfluorophenyl)methanone]	some activity	–
Cc1cc(NC(=O)c2c(F)c(F)c(F)c(F)c2F)no1 [Compound D12, 2,3,4,5,6-pentafluoro-N-(5-methylisoxazol-3-yl)benzamide]	some activity	–
O=C(c1ccc2c(c1)OCO2)N1CCN(c2ccc(F)cc2)CC1 [Compound E4, (benzo[d][1,3]dioxol-5-yl)(4-(4-fluorophenyl)piperazin-1-yl)methanone]	some activity	–
